Reference: ChEMBL document CHEMBL1201862, “PubChem BioAssay data set” (2004)
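Step 1: Grow cells in 96-well plates. Step 2: Expose to compound for 48 hours at 5 concentrations. Step 3: Interpolate endpoints linearly; if unreached, use highest concentration. At the GI50, growth is halved.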 Activity calls are given as the source filed them. No stated cut-off is given here; in the data, active = GI50 up to about 1.1 µM and inactive = higher.

What was measured:
Experiment in all cases: inhibition of tumour cell growth, NCI panel, 48 h
SK-MEL-28 = system: SK-MEL-28
LOX IMVI = system: LOX IMVI
M19-MEL = system: M19-MEL
NCI-H522 = system: NCI-H522
SR = system: SR
UO-31 = system: UO-31
NCI-H23 = system: NCI-H23
SK-OV-3 = system: SK-OV-3
HT-29 = system: HT-29
SF-539 = system: SF-539
U-251 = system: U-251
SNB-19 = system: SNB-19
SF-295 = system: SF-295
OVCAR-4 = system: OVCAR-4
SW-620 = system: SW-620
HCT-15 = system: HCT-15
HOP-62 = system: HOP-62
NCI-H226 = system: NCI-H226
MDA-N = system: MDA-N
BT-549 = system: BT-549

| SMILES | GI50 (SK-MEL-28) | GI50 (LOX IMVI) | GI50 (M19-MEL) | GI50 (NCI-H522) | GI50 (SR) | GI50 (UO-31) | GI50 (NCI-H23) | GI50 (SK-OV-3) | GI50 (HT-29) | GI50 (SF-539) | GI50 (U-251) | GI50 (SNB-19) | GI50 (SF-295) | GI50 (OVCAR-4) | GI50 (SW-620) | GI50 (HCT-15) [µM] | GI50 (HOP-62) | GI50 (NCI-H226) | GI50 (MDA-N) | GI50 (BT-549) |
| --- | --- | --- | --- | --- | --- | --- | --- | --- | --- | --- | --- | --- | --- | --- | --- | --- | --- | --- | --- | --- |
| COc1ccc2oc(C(=O)O)c3c2c1CCC3CCC(=O)O (centres undefined) | > 100 µM (inactive) | > 100 µM (inactive) | > 100 µM (inactive) | > 100 µM (inactive) | > 100 µM (inactive) | > 100 µM (inactive) | > 100 µM (inactive) | > 100 µM (inactive) | > 100 µM (inactive) | > 100 µM (inactive) | > 100 µM (inactive) | > 100 µM (inactive) | > 100 µM (inactive) | > 100 µM (inactive) | > 100 µM (inactive) |  |  |  |  |  |
| COc1ccccc1NC(=O)c1nc2ccc([N+](=O)[O-])cc2nc1C | > 100 µM (inactive) | > 100 µM (inactive) | > 100 µM (inactive) | 57.8 µM (inactive) |  | > 100 µM (inactive) | > 100 µM (inactive) | > 100 µM (inactive) | > 100 µM (inactive) | > 100 µM (inactive) | > 100 µM (inactive) | > 100 µM (inactive) |  | > 100 µM (inactive) | > 100 µM (inactive) | > 100 | 97.1 µM (inactive) | 99.3 µM (inactive) |  |  |
| CCOC(=O)C1Nc2ccccc2[C@H]2OCC[C@@H]12 (some centres undefined) | > 100 µM (inactive) | > 100 µM (inactive) | > 100 µM (inactive) | > 100 µM (inactive) |  |  | > 100 µM (inactive) | > 100 µM (inactive) | > 100 µM (inactive) | > 100 µM (inactive) | > 100 µM (inactive) | > 100 µM (inactive) | > 100 µM (inactive) | > 100 µM (inactive) | > 100 µM (inactive) | > 100 | > 100 µM (inactive) | > 100 µM (inactive) |  |  |
| CCCCCCCCCCC/C(=N/O)c1ccc(O)c2ncccc12 | 9.25 µM (inactive) | 2.37 µM (inactive) | 2.11 µM (inactive) | 2.31 µM (inactive) |  | 2.8 µM (inactive) | 10.4 µM (inactive) |  | 4.11 µM (inactive) | 2.02 µM (inactive) | 4.48 µM (inactive) | 5.74 µM (inactive) | 2.71 µM (inactive) | 2.61 µM (inactive) | 3.86 µM (inactive) |  | 4.26 µM (inactive) | 3.22 µM (inactive) |  |  |
| Cc1ccc(S(=O)(=O)c2c(N)c3nccn3c3nc4ccccc4nc23)cc1 | > 100 µM (inactive) | > 100 µM (inactive) | > 100 µM (inactive) | > 100 µM (inactive) | > 100 µM (inactive) | > 100 µM (inactive) | > 100 µM (inactive) | > 100 µM (inactive) |  | > 100 µM (inactive) | > 100 µM (inactive) | > 100 µM (inactive) |  | > 100 µM (inactive) | > 100 µM (inactive) | > 100 | 81.7 µM (inactive) |  |  |  |
| COc1cc(/C=C2\C(=O)N(c3cc(Cl)ccc3Cl)C(c3ccccc3)S2(=O)=O)cc(OC)c1OC (centres undefined) | 63.8 µM (inactive) | 55.6 µM (inactive) |  | 29.5 µM (inactive) | 31.6 µM (inactive) | 46.8 µM (inactive) | 96.4 µM (inactive) | > 100 µM (inactive) | 81.5 µM (inactive) | 90.6 µM (inactive) | 86.1 µM (inactive) | > 100 µM (inactive) | 51.5 µM (inactive) | 62.1 µM (inactive) | 33.7 µM (inactive) | 39.4 | > 100 µM (inactive) | 25.4 µM (inactive) | 22.2 µM (inactive) | 83.2 µM (inactive) |
| O=C(O)c1c(CC(Cc2ccccc2)C(=O)O)ccc2c1CCC2 (centres undefined) | > 100 µM (inactive) | > 100 µM (inactive) |  | > 100 µM (inactive) | > 100 µM (inactive) | > 100 µM (inactive) | > 100 µM (inactive) | > 100 µM (inactive) | > 100 µM (inactive) | > 100 µM (inactive) | > 100 µM (inactive) | > 100 µM (inactive) | > 100 µM (inactive) | > 100 µM (inactive) | > 100 µM (inactive) | > 100 | > 100 µM (inactive) | > 100 µM (inactive) | > 100 µM (inactive) | > 100 µM (inactive) |
| COC(=O)CNC(=O)Nc1cc(N2C(=O)ON3C2C(C)(C)N(O)C3(C)C)ccc1C (centres undefined) | > 100 µM (inactive) | > 100 µM (inactive) |  | > 100 µM (inactive) | > 100 µM (inactive) | > 100 µM (inactive) | > 100 µM (inactive) | > 100 µM (inactive) | > 100 µM (inactive) | > 100 µM (inactive) | > 100 µM (inactive) | > 100 µM (inactive) | 55 µM (inactive) | > 100 µM (inactive) | > 100 µM (inactive) | 66.5 | > 100 µM (inactive) | > 100 µM (inactive) | > 100 µM (inactive) | > 100 µM (inactive) |
